Assay results from patent publication US20250282831A1, “NOVEL PROTEIN AND NUCLEIC ACID SEQUENCES FOR COVID-19 VACCINES” (Dompe' Farmaceutici SPA, priority 2021, published 2025).

Columns and labels:
[1] = tested on: Osteoclasts from RAW264.7 macrophages; test: Estrogen-like activity: TRAP activity by ELISA in osteoclasts; assay type: cell-based, murine; details: RANKL-differentiated osteoclasts; 24 h; 1 nM Estradiol or 10 ng/ml spike proteins
[2] = tested on: MCF-7 breast cancer cells; test: BrdU proliferation assay in MCF-7 breast cancer cell line; assay type: cell-based; details: 24 hours
THP-1 = test: Proteome profile (cytokine array) of conditioned media from differentiated THP-1 cells; assay type: cell-based, Human

Compound	TRAP levels, Mean [1]	cell proliferation, Mean ([2]; peptides 10 ug/ml, spike 10 ng/ml, raloxifene 2 μM)	effect on estradiol- and spike-induced proliferation (in words) ([2]; co-treatment with raloxifene 2 μM)	effect on spike-induced IL-8 up-regulation (in words) (THP-1)	effect on CHI3L1 up-regulation (in words) (THP-1; co-treatment with spike and/or estradiol, 24 h)	effect on OPN upregulation (in words) (THP-1; co-treatment with spike, 24 h)
C[C@]12CC[C@@H]3c4ccc(O)cc4CC[C@H]3[C@@H]1CC[C@@H]2O [Estradiol]	0.25 U/L	–	–	–	–	–
O=C(c1ccc(OCCN2CCCCC2)cc1)c1c(-c2ccc(O)cc2)sc2cc(O)ccc12 [ral, Raloxifene]	–	109.5 percentage of control	counteracted	effective in counteracting the effect of spike	able to counteract only the effects of spike alone	able to counteract the effects of spike alone
